Measurements: article PMC5431875, “In situ click chemistry generation of cyclooxygenase-2 inhibitors” (Nature Communications, 2017)
Read-outs that look alike come from different tables or passages of the source.

Legend:
COX-2 in HCA-7 cells = target: T1, COX-2 in HCA-7 cells (Homo sapiens, UniProt P35354); assay: Cellular COX-2 inhibitory activity (PGE2 ELISA) in HCA-7 cells; assay type: cell-based; settings: mean of three determinations, read-out: Cell COX-2 IC50
T1 construct: endogenous in cells; host or cells: HCA-7
T1 sequence (P35354 18-604): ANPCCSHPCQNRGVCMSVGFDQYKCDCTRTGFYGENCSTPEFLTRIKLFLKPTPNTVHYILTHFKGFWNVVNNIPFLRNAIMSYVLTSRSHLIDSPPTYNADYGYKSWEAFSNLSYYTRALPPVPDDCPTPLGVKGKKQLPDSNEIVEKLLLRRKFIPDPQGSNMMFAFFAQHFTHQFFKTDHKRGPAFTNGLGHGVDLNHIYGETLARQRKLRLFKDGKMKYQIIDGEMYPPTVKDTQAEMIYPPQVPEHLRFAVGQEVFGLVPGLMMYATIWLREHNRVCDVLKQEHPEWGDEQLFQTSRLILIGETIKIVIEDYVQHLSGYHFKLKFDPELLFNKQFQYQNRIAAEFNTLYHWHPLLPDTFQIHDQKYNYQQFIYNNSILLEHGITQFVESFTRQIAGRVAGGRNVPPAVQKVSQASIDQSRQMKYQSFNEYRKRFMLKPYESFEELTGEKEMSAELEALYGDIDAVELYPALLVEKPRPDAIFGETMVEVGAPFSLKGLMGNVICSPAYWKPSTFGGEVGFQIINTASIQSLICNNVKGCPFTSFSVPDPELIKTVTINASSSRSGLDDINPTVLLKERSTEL
Protocol: Based on the in vitro COX-2 inhibitory data, seventeen compounds (Table 2) were selected and further evaluated for their cellular COX-2 inhibitory activity in COX-2 expressing colorectal cancer cell line HCA-7. […]
HCA-7 cells (colorectal cancer cell line, COX-2 expression is confirmed with immunoblotting). The HCA-7 cells were cultured in T75 flasks using DMEM/F12 (1:1) medium supplemented with 10% (v/v) fetal bovine […]
were washed three times for 5 min with 1 ml PBS. Cells were negatively tested for mycoplasma contamination either by the vendor or in house. […]
vehicle (solvent) at concentration range of 10−9 M to 10−3 M. After 30 min incubation the reaction was stopped on ice and supernatants were taken and COX-2 mediated production of PGE2 was immediately determined […]
concentration is quantified by following manufacturer assay procedure. All experiments were done three times and ±s.e.m. were calculated.
The PRISM5 software was used to calculate IC50 values.

[1] = system: carrageenan-induced rat paw edema; assay: Carrageenan-induced rat paw edema assay; assay type: in vivo; settings: for Change in behavior and toxic effects: oral doses of the edema assay; for ED50 anti-inflammatory activity: p.o.; for times more potent than celecoxib: versus celecoxib ED50 at 3 h
Protocol: In vivo anti-inflammatory activity was measured using a carrageenan-induced rat paw edema assay. In brief, three to five male Sprague–Dawley rats, 8–11-weeks-old, weighing 180–200 g (Charles-River Canada) were used in each group. […] A dose–response curve was constructed using GraphPad Prism 5.0 and ED50were calculated. […] In vivo anti-inflammatory assays were carried using a protocol approved by the Health Sciences Animal Welfare Committee, University of Alberta, Edmonton, Canada.

recombinant human COX-2 = target: T2, recombinant human COX-2 (Homo sapiens, UniProt P35354); assay: COX inhibitor assay (Cayman 700100), COX-2
T2 sequence (P35354 18-604): T1 sequence (P35354 18-604)
Protocol: (§1) Each compound was assayed in concentration range of 10^−9 M to 10^−3 M, in triplicate. PRISM5 software was used to calculate IC50 values.

ovine COX-1 = target: T3, ovine COX-1 (Ovis aries, UniProt P05979); assay: COX inhibitor assay (Cayman 700100), COX-1
T3 sequence (P05979 25-600): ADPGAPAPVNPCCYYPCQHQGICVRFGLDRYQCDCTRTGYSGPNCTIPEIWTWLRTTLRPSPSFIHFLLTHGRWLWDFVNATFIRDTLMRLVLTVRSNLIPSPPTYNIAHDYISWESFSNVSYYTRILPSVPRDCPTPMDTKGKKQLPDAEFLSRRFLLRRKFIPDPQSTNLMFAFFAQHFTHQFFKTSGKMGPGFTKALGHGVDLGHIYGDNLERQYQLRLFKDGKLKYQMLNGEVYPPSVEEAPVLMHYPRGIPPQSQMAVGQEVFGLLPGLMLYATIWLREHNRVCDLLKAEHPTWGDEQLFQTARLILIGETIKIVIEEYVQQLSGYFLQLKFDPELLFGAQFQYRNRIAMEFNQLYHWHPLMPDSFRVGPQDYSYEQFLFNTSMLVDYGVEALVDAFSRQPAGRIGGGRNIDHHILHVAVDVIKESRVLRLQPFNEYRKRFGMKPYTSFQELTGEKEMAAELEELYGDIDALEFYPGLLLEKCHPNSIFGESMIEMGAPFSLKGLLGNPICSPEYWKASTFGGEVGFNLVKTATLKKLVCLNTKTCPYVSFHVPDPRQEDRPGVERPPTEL
Protocol: as §1

Stability in human serum = assay type: in vitro ADME; settings: 37 °C, up to 30 h
Protocol: Stock solutions of compounds 5, 14, 18 and 21 (10 mM) were prepared in DMSO for molecular biology. A Solution of each compound (10 mM) was added to freshly thaw human serum (from human male AB plasma, USA origin, sterile-filtered, Sigma– Aldrich) at 37 °C; the final concentration of the compound was 100 µM. The resulting solution was incubated at 37 °C and at various time intervals (0 to 30 h) 200 µL reaction mixture samples was taken and added to 200 µL of acetonitrile containing 0.1% trifluoroacetic acid in order to deproteinize the proteins. Into each sample mixture, 10 μL of an internal standard solution (2 mM solution in methanol) was added. Sample mixture was sonicated, vortexed and then centrifuged for 15 min. at 2150 × g. The clear supernatant was transferred into the fresh tube for LCMS analysis, with a similar method described for the in situ click LC-MS studies. […]

Stability in rat serum = assay type: in vitro ADME; settings: 37 °C, up to 30 h

Row | Compound | IC50 (COX-2 in HCA-7 cells) | Change in behavior and toxic effects [1] | ED50 anti-inflammatory activity ([1]; 3 h time point) | ED50 anti-inflammatory activity ([1]; 5 h time point) | times more potent than celecoxib [1] | COX-2 SI (selectivity index) (recombinant human COX-2) | IC50 (recombinant human COX-2) | IC50 (ovine COX-1) | melting point | COX-2 SI (selectivity index) (recombinant human COX-2; (COX-1 IC50)/(COX-2 IC50)) | Stability in human serum (Stability in human serum) | Stability in rat serum (Stability in rat serum)
1 | Cc1cc(-n2cc(-c3ccc(N)cc3)nn2)n(-c2ccc(S(C)(=O)=O)cc2)n1 [Compound 21, 4-{1-[2-(4-methanesulfonyl-phenyl)-5-methyl-2H-pyrazol-3-yl]-1H-[1,2,3]triazol-4-yl}-phenylamine] | 0.08 µM | No unusual change in behavior and toxic effects | 0.12 mg/kg | 0.34 mg/kg | > 25 times | >2,000 | 0.05 µM | > 100 µM |  |  |  | 
2 | Cc1cc(-n2cc(-c3ccc(C(F)(F)F)cc3)nn2)n(-c2ccc(S(C)(=O)=O)cc2)n1 [Compound 22] | 0.15 µM |  |  |  |  |  | 0.22 µM | > 100 µM | 209 to 211 °C | >454.5 |  | 
3 | COc1ccc(-c2cn(-c3cc(-c4ccccc4)nn3-c3ccccc3)nn2)cc1 [Compound 10] |  |  |  |  |  |  | 15.2 µM | > 100 µM |  | >6.5 |  | 
4 | Clc1ccc(-c2cn(-c3cc(-c4ccccc4)nn3-c3ccccc3)nn2)cc1 [Compound 8] | 4 µM |  |  |  |  |  | 0.16 µM | > 100 µM | 134 to 136 °C | >625 |  | 
5 | CS(=O)(=O)c1ccc(-n2nc(-c3ccccc3)cc2N=[N+]=[N-])cc1 [Compound 27, 5-azido-1-(4-methanesulfonyl-phenyl)-3-phenyl-1H-pyrazole] |  |  |  |  |  |  |  |  |  |  | no significant degradation | no significant degradation
6 | Cc1cc(-n2cc(-c3ccccc3)nn2)n(-c2ccc(S(C)(=O)=O)cc2)n1 [Compound 16] |  |  |  |  |  |  | 10 µM | > 100 µM | 146 to 148 °C | >10 |  | 
7 | CCc1ccc(-c2cn(-c3cc(-c4ccccc4)nn3-c3ccccc3)nn2)cc1 [Compound 12] |  |  |  |  |  |  | 18 µM | > 100 µM | 130 to 133 °C | >5.5 |  | 
8 | Cc1cc(-n2cc(-c3ccc(F)cc3)nn2)n(-c2ccc(S(C)(=O)=O)cc2)n1 [Compound 18, 4-(4-fluorophenyl)-1-[2-(4-methanesulfonyl-phenyl)-5-methyl-2H-pyrazol-3-yl]-1H [1,2,3]triazole] | 0.06 µM | No unusual change in behavior and toxic effects | 0.44 mg/kg | 0.99 mg/kg | > 25 times | >1,111.1 | 0.09 µM | > 100 µM |  |  |  | 
9 | Cc1cc(-n2cc(CC(C)C)nn2)n(-c2ccc(S(C)(=O)=O)cc2)n1 [Compound 23] |  |  |  |  |  |  | 6.2 µM | > 100 µM | 150 to 153 °C | >16.1 |  | 
10 | COc1ccc(-c2cn(-c3cc(C)nn3-c3ccc(S(C)(=O)=O)cc3)nn2)cc1 [Compound 19] |  |  |  |  |  |  | 26 µM | > 100 µM |  | >3.84 |  | 
11 | Cc1cc(N=[N+]=[N-])n(-c2ccccc2)n1 [Compound 31, 5-azido-3-methyl-1-phenyl-1H-pyrazole] |  |  |  |  |  |  |  |  | 123 to 125 °C |  | no significant degradation | no significant degradation
12 | Cc1cc(-n2cc(-c3ccc(Cl)cc3)nn2)n(-c2ccc(S(C)(=O)=O)cc2)n1 [Compound 17] | 1 µM |  |  |  |  |  | 1.1 µM | > 100 µM | 145 to 148 °C | >90.9 |  | 
13 | [N-]=[N+]=Nc1cc(-c2ccccc2)nn1-c1ccccc1 [Compound 5, 5-azido-1,3-diphenyl-1H-pyrazole] | > 1 µM |  |  |  |  |  | 18.1 µM | > 100 µM |  | >5.5 | no significant degradation | no significant degradation
14 | Cc1ccc(-c2cn(-c3cc(C)nn3-c3ccc(S(C)(=O)=O)cc3)nn2)cc1 [Compound 20] |  |  |  |  |  |  | 19 µM | > 100 µM |  | >5.26 |  | 
15 | c1ccc(-c2cn(-c3cc(-c4ccccc4)nn3-c3ccccc3)nn2)cc1 [Compound 7] | 3 µM |  |  |  |  |  | 0.9 µM | > 100 µM |  | >111.1 |  | 
16 | Cc1cc(-n2cc(CN3CCOCC3)nn2)n(-c2ccc(S(C)(=O)=O)cc2)n1 [Compound 24] | 0.7 µM |  |  |  |  |  | 0.82 µM | > 100 µM | 172 to 174 °C | >121.9 |  | 
17 | Cc1ccc(-c2cn(-c3cc(-c4ccccc4)nn3-c3ccccc3)nn2)cc1 [Compound 11] | 2 µM |  |  |  |  |  | 3.2 µM | > 100 µM | 125 to 127 °C | >31.2 |  | 
18 | Fc1ccc(-c2cn(-c3cc(-c4ccccc4)nn3-c3ccccc3)nn2)cc1 [Compound 9] | 2 µM |  |  |  |  |  | 0.14 µM | > 100 µM | 129 to 131 °C | >714.2 |  | 
19 | Cc1cc(-n2cc(-c3ccc(N)cc3)nn2)n(-c2ccccc2)n1 [Compound 33] | 0.1 µM |  |  |  |  |  | 8.6 µM | 57.9 µM |  | 6.73 |  | 
20 | Cc1cc(-n2cc(-c3ccc(F)cc3)nn2)n(-c2ccccc2)n1 [Compound 32] | 0.1 µM |  |  |  |  |  | 12 µM | 45.5 µM |  | 3.7 |  | 
21 | CS(=O)(=O)c1ccc(-n2nc(-c3ccccc3)cc2-n2cc(-c3ccc(N)cc3)nn2)cc1 [Compound 29] | 0.1 µM |  |  |  |  |  | 2.7 µM | > 100 µM |  | >37.0 |  | 
22 | CS(=O)(=O)c1ccc(-n2nc(-c3ccccc3)cc2-n2cc(-c3ccc(F)cc3)nn2)cc1 [Compound 28] | 0.2 µM |  |  |  |  |  | 0.14 µM | > 100 µM |  | >714.2 |  | 
23 | Cc1cc(-n2cc(CN3CCCCC3)nn2)n(-c2ccc(S(C)(=O)=O)cc2)n1 [Compound 25] | 11 µM |  |  |  |  |  | 5.2 µM | > 100 µM |  | >19.2 |  | 
